The numbers were not newly measured in patent publication US20090312439A1, “USE OF ROLL COMPACTED PYROGENICALLY PRODUCED SILICON DIOXIDE IN PHARMACEUTICAL COMPOSITIONS” (priority 2006, published 2009), which cites them from elsewhere.

Structures are written as SMILES.

Take `C#C[C@]1(O)CC[C@H]2[C@@H]3CCc4cc(O)ccc4[C@H]3CC[C@@]21C` [ethinyl oestradiol]: the saturation equilibrium value (pure active constituent in water, reached only after shaking over several days) was 1.1 mg/100 ml. Further, where the note is “sorbate of 5.2 mg on 100 mg pyrogenic silicic acid (AEROSIL 200)”, the “release of active constituent on contact with water” value is given as “supersaturated solution is formed”.
